Data published in patent US20110034457A1, “Pyridothiophene Compounds” (VERNALIS (CAMBRIDGE) LIMITED., priority 2003, published 2011).

biological target: T1, human full-length HSP90 (Homo sapiens, UniProt P08238); assay: Fluorescence polarization assay (competitive displacement of probe RBT0045864-FAM from HSP90); assay type: binding; conditions: not given
T1 construct: E. coli expressed human full-length HSP90 protein, purified >95%; made in house; host or cells: E. coli
Excerpt: Fluorescence polarization {also known as fluorescence anisotropy} measures the rotation of a fluorescing species in solution, where the larger molecule the more polarized the fluorescence emission. When the fluorophore is excited with polarized light, the emitted light is also polarized. The molecular size is proportional to the polarization of the fluorescence emission.
The fluoroscein-labelled probe—RBT0045864-FAM—
binds to HSP90 {full-length human, full-length yeast or N-terminal domain HSP90} and the anisotropy {rotation of the probe:protein complex} is measured.
Test compound is added to the assay plate, left to equilibrate and the anisotropy measured again. Any change in anisotropy is due to competitive binding of compound to HSP90, thereby releasing probe.
Stored at room temperature. • 3) BSA (bovine serum albumen) 10 mg/ml (New England Biolabs # B9001S) • 4) 20 mM probe in 100% DMSO stock concentration. Stored in the dark at RT. Working concentration is 200 nM diluted in AR water and stored at 4° C.
• 1) Add 100 μl 1× buffer to wells 11A and 12A (=FP BLNK) • 2) Prepare assay mix—all reagents are kept on ice with a lid on the bucket as the probe is light-sensitive.
• 3) Aliquot 100 μl assay mix to all other wells • 4) Seal plate and leave in dark at room temp for 20 minutes to equilibrate
This gives 2.5 mM {50×} stock cpd—assuming cpds 20 mM. • 4) Repeat for wells A2 to A10. Control in columns 11 and 12. • 5) Transfer 5 μl from row A to row B—not column 12. Mix well. • 6) Transfer 5 μl from row B to row C. […] Add 2 μl of 100 mM standard cpd to wells B12-H12 {is positive control} • 13) The Z′ factor is calculated from zero controls and positive wells.

T1 sequence (P08238 whole entry): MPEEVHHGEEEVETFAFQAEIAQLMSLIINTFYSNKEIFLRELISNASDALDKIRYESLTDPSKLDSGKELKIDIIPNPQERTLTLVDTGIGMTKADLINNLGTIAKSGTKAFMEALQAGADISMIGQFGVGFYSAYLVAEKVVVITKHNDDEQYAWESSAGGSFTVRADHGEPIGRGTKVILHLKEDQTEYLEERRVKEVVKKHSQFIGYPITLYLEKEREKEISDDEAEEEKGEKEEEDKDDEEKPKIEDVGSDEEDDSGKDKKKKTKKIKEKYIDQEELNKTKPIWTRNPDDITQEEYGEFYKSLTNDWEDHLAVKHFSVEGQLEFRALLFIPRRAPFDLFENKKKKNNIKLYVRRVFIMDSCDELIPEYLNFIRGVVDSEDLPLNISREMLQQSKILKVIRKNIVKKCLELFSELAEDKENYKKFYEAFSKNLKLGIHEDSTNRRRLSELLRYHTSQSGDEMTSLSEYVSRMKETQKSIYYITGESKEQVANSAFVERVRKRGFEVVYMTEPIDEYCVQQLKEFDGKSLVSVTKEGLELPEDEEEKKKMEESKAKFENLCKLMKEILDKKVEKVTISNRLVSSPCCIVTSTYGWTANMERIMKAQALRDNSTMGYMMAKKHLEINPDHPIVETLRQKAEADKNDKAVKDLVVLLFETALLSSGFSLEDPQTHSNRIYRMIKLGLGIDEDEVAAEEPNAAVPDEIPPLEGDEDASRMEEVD

| IC50 [µM] | SMILES |
| --- | --- |
| < 10 | CCOc1ccc(-c2c(C#N)c(N)nc3sc(C(N)=O)c(N)c23)cc1 [Example 8] |

same assay, conditions: fluorescence polarisation, E. coli expressed human full-length HSP90 200 nM, probe 80 nM; read-out: Hsp90 FP IC50

| SMILES | IC50 [µM] |
| --- | --- |
| CC(C)c1ccc(-c2c(C#N)c(N)nc3sc(C(=O)Nc4nccs4)c(N)c23)cc1 [Example 5] | > 10 |
| N#Cc1c(N)nc2sc(C(N)=O)c(N)c2c1-c1ccccc1 [Example 25] | > 10 |
| N#Cc1c(N)nc2sc(C(=O)Nc3ccccc3)c(N)c2c1-c1ccc(Br)cc1 [Example 9] | > 10 |
| COc1cccc(NC(=O)c2sc3nc(N)c(C#N)c(-c4ccc(C(C)C)cc4)c3c2N)c1 [Example 3] | > 10 |
| Cc1ccccc1NC(=O)c1sc2nc(N)c(C#N)c(-c3ccc(C(C)C)cc3)c2c1N [Example 2] | > 10 |
| CCN(CC)C(=O)c1sc2nc(N)c(C#N)c(-c3ccccc3)c2c1N [Example 13] | > 10 |
| N#Cc1c(N)nc2sc(C(N)=O)c(N)c2c1-c1ccc(Cl)cc1 [Example 7] | < 10 |
| CC(C)c1ccc(-c2c(C#N)c(N)nc3sc(C(N)=O)c(N)c23)cc1 [Example 6] | < 10 |
| N#Cc1c(N)nc2sc(C(=O)NCc3ccccc3)c(N)c2c1-c1ccccc1 [Example 12] | > 10 |
| COC(=O)c1sc2nc(N)c(C#N)c(-c3ccc(OC(C)C)cc3)c2c1N [Example 27] | > 10 |
| COc1ccc(-c2c(C#N)c(N)nc3sc(C(N)=O)c(N)c23)cc1OC [Example 10] | > 10 |
| N#Cc1c(N)nc2sc(C(N)=O)c(N)c2c1-c1ccc(Br)cc1 [Example 4] | > 10 |

The remaining lines, values ahead:

| IC50 [µM] | SMILES |
| --- | --- |
| > 10 | CN1CCN(CCCNC(=O)c2sc3nc(N)c(C#N)c(-c4ccccc4)c3c2N)CC1 [Example 18] |
| > 10 | N#Cc1c(N)nc2sc(C(=O)NCCN3CCOCC3)c(N)c2c1-c1ccccc1 [Example 21] |
| > 10 | N#Cc1c(N)nc2sc(C(=O)NCCN)c(N)c2c1-c1ccccc1 [Example 26] |
| > 10 | CN(C)CCNC(=O)c1sc2nc(N)c(C#N)c(-c3ccccc3)c2c1N [Example 23] |
| > 10 | N#Cc1c(N)nc2sc(C(=O)NCCO)c(N)c2c1-c1ccccc1 [Example 24] |
| > 10 | N#Cc1c(N)nc2sc(C(=O)N3CCOCC3)c(N)c2c1-c1ccccc1 [Example 20] |
| > 10 | CN(C)CCCNC(=O)c1sc2nc(N)c(C#N)c(-c3ccccc3)c2c1N [Example 17] |
| > 10 | N#Cc1c(N)nc2sc(C(=O)NCCCN3CCOCC3)c(N)c2c1-c1ccccc1 [Example 19] |
| < 10 | CCNC(=O)c1sc2nc(N)c(C#N)c(-c3ccccc3)c2c1N [Example 1, 3,6-Diamino-5-cyano-4-phenyl-thieno[2,3-b]pyridine-2-carboxylic acid ethylamide] |
| < 10 | CNC(=O)c1sc2nc(N)c(C#N)c(-c3ccccc3)c2c1N [Example 14] |
| < 10 | COC(=O)CNC(=O)c1sc2nc(N)c(C#N)c(-c3ccccc3)c2c1N [Example 15] |
| < 10 | N#Cc1c(N)nc2sc(C(=O)NCC(N)=O)c(N)c2c1-c1ccccc1 [Example 22] |
| > 10 | CC(C)NC(=O)c1sc2nc(N)c(C#N)c(-c3ccccc3)c2c1N [Example 11] |
| > 10 | CN1CCN(C(=O)c2sc3nc(N)c(C#N)c(-c4ccccc4)c3c2N)CC1 [Example 16] |
